Results reported in paper PMC5218480 (PLoS ONE, 2017).

Tested on: MV-4-11 cells
Test: Gene expression microarray analysis (Affymetrix PrimeView) and GSEA
Type: cell-based, human
Design: RFU PODN (11730768_x_at) / Fold change /veh PODN (11730768_x_at) / RFU LINC00158 (11744669_a_at) / Fold change /veh LINC00158 (11744669_a_at) / RFU DUSP10 (11751237_a_at) / Fold change /veh DUSP10 (11751237_a_at) / RFU ID3 (11757404_x_at) / Fold change /veh ID3 (11757404_x_at) / RFU PLEKHG5 (11737974_s_at) / Fold change /veh PLEKHG5 (11737974_s_at) / RFU LRRC4B (11730491_at) / Fold change /veh LRRC4B (11730491_at) / RFU GIMAP4 (11747438_a_at) / Fold change /veh GIMAP4 (11747438_a_at) / RFU KRT8 (11758183_x_at) / Fold change /veh KRT8 (11758183_x_at) / RFU CNN1 (11734310_a_at) / Fold change /veh CNN1 (11734310_a_at) / RFU VPS37D (11726825_at) / Fold change /veh VPS37D (11726825_at) / RFU C10orf10 (11716522_x_at) / Fold change /veh C10orf10 (11716522_x_at) / RFU KIR2DL2 /// KIR2DL4 /// KIR2DL5A /// KIR2DL5B /// KIR2DS1 /// KIR2DS2 /// KIR2DS3 /// KIR2DS4 /// KIR3DL3 /// KIR3DL3 /// KIR3DS1 (11738374_at) / Fold change /veh KIR2DL2 /// KIR2DL4 /// KIR2DL5A /// KIR2DL5B /// KIR2DS1 /// KIR2DS2 /// KIR2DS3 /// KIR2DS4 /// KIR3DL3 /// KIR3DL3 /// KIR3DS1 (11738374_at) / RFU C1QL1 (11718748_at) / Fold change /veh C1QL1 (11718748_at) / RFU TMPRSS4 (11747572_a_at) / Fold change /veh TMPRSS4 (11747572_a_at) / RFU HAMP (11756126_x_at) / Fold change /veh HAMP (11756126_x_at) / RFU RNFT2 (11725882_a_at) / Fold change /veh RNFT2 (11725882_a_at) / RFU NR4A2 (11747474_a_at) / Fold change /veh NR4A2 (11747474_a_at) / RFU ABCC12 (11746883_a_at) / Fold change /veh ABCC12 (11746883_a_at) / RFU TMEM136 (11760407_x_at) / Fold change /veh TMEM136 (11760407_x_at) / RFU CLDN22 /// WWC2 (11732394_at) / Fold change /veh CLDN22 /// WWC2 (11732394_at) / RFU HLA-DPB1 (11760878_x_at) / Fold change /veh HLA-DPB1 (11760878_x_at) / RFU SPINT1 (11716480_a_at) / Fold change /veh SPINT1 (11716480_a_at) / RFU GAP43 (11754022_s_at) / Fold change /veh GAP43 (11754022_s_at) / RFU A4GNT (11735810_at) / Fold change /veh A4GNT (11735810_at) / RFU PRB3 (11715151_x_at) / Fold change /veh PRB3 (11715151_x_at) / RFU TUBB4B (11761932_at) / Fold change /veh TUBB4B (11761932_at) / RFU CAPN14 (11732068_a_at) / Fold change /veh CAPN14 (11732068_a_at) / RFU TMCC2 (11721928_a_at) / Fold change /veh TMCC2 (11721928_a_at) / RFU IRGQ (11745062_a_at) / Fold change /veh IRGQ (11745062_a_at) / RFU FAM174B (11720279_a_at) / Fold change /veh FAM174B (11720279_a_at) / RFU TMPRSS4 (11748680_a_at) / Fold change /veh TMPRSS4 (11748680_a_at) / RFU FAM212B (11763350_a_at) / Fold change /veh FAM212B (11763350_a_at) / RFU PLEKHG5 (11743358_a_at) / Fold change /veh PLEKHG5 (11743358_a_at) / RFU ZSCAN30 (11745921_a_at) / Fold change /veh ZSCAN30 (11745921_a_at) / RFU CMKLR1 (11741424_a_at) / Fold change /veh CMKLR1 (11741424_a_at) / RFU LOC101060620 /// MAPK8IP1 (11723275_at) / Fold change /veh LOC101060620 /// MAPK8IP1 (11723275_at) / RFU SPTSSB (11747773_x_at) / Fold change /veh SPTSSB (11747773_x_at) / RFU PRSS12 (11739890_at) / Fold change /veh PRSS12 (11739890_at) / RFU BIN1 (11741810_x_at) / Fold change /veh BIN1 (11741810_x_at) / RFU WNT11 (11732464_a_at) / Fold change /veh WNT11 (11732464_a_at) / RFU C10orf10 (11716521_a_at) / Fold change /veh C10orf10 (11716521_a_at) / RFU C5orf56 (11738089_at) / Fold change /veh C5orf56 (11738089_at) / RFU CYB561 (11721691_x_at) / Fold change /veh CYB561 (11721691_x_at) / RFU ANKRD19P (11752326_a_at) / Fold change /veh ANKRD19P (11752326_a_at) / RFU OR2T12 /// OR2T33 /// OR2T8 (11738714_s_at) / Fold change /veh OR2T12 /// OR2T33 /// OR2T8 (11738714_s_at) / RFU VCAN (11748164_a_at) / Fold change /veh VCAN (11748164_a_at) / RFU JSRP1 (11732532_at) / Fold change /veh JSRP1 (11732532_at) / RFU KRTAP10-11 (11738290_x_at) / Fold change /veh KRTAP10-11 (11738290_x_at) / RFU MYO3A (11730013_a_at) / Fold change /veh MYO3A (11730013_a_at) / RFU EBF3 (11725865_a_at) / Fold change /veh EBF3 (11725865_a_at) / RFU CAMK2N1 (11719241_x_at) / Fold change /veh CAMK2N1 (11719241_x_at) / RFU C5orf56 (11738088_a_at) / Fold change /veh C5orf56 (11738088_a_at) / RFU OLFML3 (11715873_a_at) / Fold change /veh OLFML3 (11715873_a_at) / RFU LOC100653217 /// NTM (11731650_a_at) / Fold change /veh LOC100653217 /// NTM (11731650_a_at) / RFU MAPK11 (11762145_a_at) / Fold change /veh MAPK11 (11762145_a_at) / RFU FIZ1 (11724087_x_at) / Fold change /veh FIZ1 (11724087_x_at) / RFU OASL (11726364_x_at) / Fold change /veh OASL (11726364_x_at) / RFU SOX15 (11748057_x_at) / Fold change /veh SOX15 (11748057_x_at) / RFU CD79A (11719716_a_at) / Fold change /veh CD79A (11719716_a_at) / RFU HIST1H1D (11736915_at) / Fold change /veh HIST1H1D (11736915_at) / RFU CASKIN2 (11723855_a_at) / Fold change /veh CASKIN2 (11723855_a_at) / RFU LOC730098 (11760151_x_at) / Fold change /veh LOC730098 (11760151_x_at) / RFU OR4N2 (11742367_at) / Fold change /veh OR4N2 (11742367_at) / RFU PRRT2 (11749266_a_at) / Fold change /veh PRRT2 (11749266_a_at) / RFU SNX32 (11753110_a_at) / Fold change /veh SNX32 (11753110_a_at) / RFU CDHR5 (11726645_a_at) / Fold change /veh CDHR5 (11726645_a_at) / RFU RCAN1 (11760418_a_at) / Fold change /veh RCAN1 (11760418_a_at) / RFU FAM167A (11723789_a_at) / Fold change /veh FAM167A (11723789_a_at) / RFU FAM26E (11764081_at) / Fold change /veh FAM26E (11764081_at) / RFU ISYNA1 (11749810_s_at) / Fold change /veh ISYNA1 (11749810_s_at) / RFU ACY1 (11761880_at) / Fold change /veh ACY1 (11761880_at) / RFU 11764098_at / Fold change /veh 11764098_at / RFU SAMD14 (11745864_x_at) / Fold change /veh SAMD14 (11745864_x_at) / RFU NPB (11741838_a_at) / Fold change /veh NPB (11741838_a_at) / RFU TMPRSS6 (11731388_a_at) / Fold change /veh TMPRSS6 (11731388_a_at) / RFU KRTAP10-2 (11738614_at) / Fold change /veh KRTAP10-2 (11738614_at) / RFU ARHGAP8 /// PRR5-ARHGAP8 (11727945_x_at) / Fold change /veh ARHGAP8 /// PRR5-ARHGAP8 (11727945_x_at) / RFU KRTAP5-7 /// NADSYN1 (11734609_at) / Fold change /veh KRTAP5-7 /// NADSYN1 (11734609_at) / RFU RASL12 (11751679_a_at) / Fold change /veh RASL12 (11751679_a_at) / RFU CDKN2B (11736163_a_at) / Fold change /veh CDKN2B (11736163_a_at) / RFU PRF1 (11729649_at) / Fold change /veh PRF1 (11729649_at) / RFU, ZNF638 /// ZNF638-IT1 / Fold change vs veh, ZNF638 /// ZNF638-IT1 / RFU, PANK3 / Fold change vs veh, PANK3 / RFU, SH3YL1 / Fold change vs veh, SH3YL1 / RFU, ZEB2 / Fold change vs veh, ZEB2 / RFU, NRIP1 / Fold change vs veh, NRIP1 / RFU, PTTG1IP / Fold change vs veh, PTTG1IP / RFU, CAPN2 / Fold change vs veh, CAPN2 / RFU, MED14 / Fold change vs veh, MED14 / RFU, SNORA58 / Fold change vs veh, SNORA58 / RFU, C1orf63 / Fold change vs veh, C1orf63 / RFU, LRRFIP1 / Fold change vs veh, LRRFIP1 / RFU, NDUFAF7 / Fold change vs veh, NDUFAF7 / RFU, SLC12A2 / Fold change vs veh, SLC12A2 / RFU, IBTK / Fold change vs veh, IBTK / RFU, ESF1 / Fold change vs veh, ESF1 / Fold change vs veh, TMEM50B / RFU, TAOK1 / Fold change vs veh, TAOK1 / RFU, ACBD3 / Fold change vs veh, ACBD3 / RFU, TMA16 / Fold change vs veh, TMA16 / RFU, RWDD3 / Fold change vs veh, RWDD3 / RFU, BCAT1 / Fold change vs veh, BCAT1 / RFU, EDEM3 / Fold change vs veh, EDEM3 / RFU, TMEM33 / Fold change vs veh, TMEM33 / RFU, WDR75 / Fold change vs veh, WDR75 / RFU, AHCTF1 / Fold change vs veh, AHCTF1 / RFU, TFRC / Fold change vs veh, TFRC / RFU, ZDHHC17 / Fold change vs veh, ZDHHC17 / RFU, NOM1 / Fold change vs veh, NOM1 / RFU, ARL8B / Fold change vs veh, ARL8B / RFU, ZBTB11 / Fold change vs veh, ZBTB11 / RFU, TAMM41 / Fold change vs veh, TAMM41 / RFU, KIAA1704 /// LOC100996395 / Fold change vs veh, KIAA1704 /// LOC100996395 / RFU, ING1 / Fold change vs veh, ING1 / RFU, TRMT61B / Fold change vs veh, TRMT61B / RFU, FUBP3 / Fold change vs veh, FUBP3 / RFU, TP53 / Fold change vs veh, TP53 / RFU, TNKS2 / Fold change vs veh, TNKS2 / RFU, ZFP14 / Fold change vs veh, ZFP14 / RFU, ACTR2 / Fold change vs veh, ACTR2 / RFU, PPP3R1 / Fold change vs veh, PPP3R1 / RFU, PIK3R1 / Fold change vs veh, PIK3R1 / RFU, HNRNPA1 / Fold change vs veh, HNRNPA1 / RFU, RNF170 / Fold change vs veh, RNF170 / RFU, ZNF28 / Fold change vs veh, ZNF28 / RFU, RNGTT / Fold change vs veh, RNGTT / RFU, OGT / Fold change vs veh, OGT / RFU, BRD1 / Fold change vs veh, BRD1 / RFU, MARS / Fold change vs veh, MARS / RFU, ZNF655 / Fold change vs veh, ZNF655 / RFU, FAHD1 / Fold change vs veh, FAHD1 / RFU, BDP1 / Fold change vs veh, BDP1 / RFU, LRRCC1 / Fold change vs veh, LRRCC1 / RFU, ARID1A / Fold change vs veh, ARID1A / RFU, ZNF146 / Fold change vs veh, ZNF146 / RFU, ZNF330 / Fold change vs veh, ZNF330 / RFU, GPN3 / Fold change vs veh, GPN3 / RFU, C9orf123 / Fold change vs veh, C9orf123 / RFU, N4BP2L2 / Fold change vs veh, N4BP2L2 / RFU, ARFIP1 / Fold change vs veh, ARFIP1 / RFU, FAM179B / Fold change vs veh, FAM179B / RFU, BCL10 / Fold change vs veh, BCL10 / RFU, UHRF1BP1L / Fold change vs veh, UHRF1BP1L / RFU, BET1 / Fold change vs veh, BET1 / RFU, CNOT2 / Fold change vs veh, CNOT2 / RFU, ZNF268 / Fold change vs veh, ZNF268 / Fold change vs veh, ZNF507 / RFU, DGCR2 / Fold change vs veh, DGCR2 / RFU, WDSUB1 / Fold change vs veh, WDSUB1 / Fold change vs veh, HSP90B1 /// MIR3652 / RFU, ADSS / Fold change vs veh, ADSS / RFU, GK / Fold change vs veh, GK / RFU, ZNF148 / Fold change vs veh, ZNF148 / RFU, TAF9 / Fold change vs veh, TAF9 / RFU, SLC1A5 / Fold change vs veh, SLC1A5 / RFU, SLMO2 / Fold change vs veh, SLMO2 / RFU, ABCC4 / Fold change vs veh, ABCC4 / RFU, LOC101060439 /// RAP1B / Fold change vs veh, LOC101060439 /// RAP1B / RFU, RFX7 / Fold change vs veh, RFX7 / RFU, GTPBP10 / Fold change vs veh, GTPBP10 / RFU, CNEP1R1 / Fold change vs veh, CNEP1R1 / RFU, BIVM-ERCC5 /// ERCC5 / Fold change vs veh, BIVM-ERCC5 /// ERCC5 / RFU, ILF3 / Fold change vs veh, ILF3 / RFU 11762660_at / Fold change /veh 11762660_at / RFU VCAN (11757783_s_at) / Fold change /veh VCAN (11757783_s_at) / RFU DDX43 (11728927_at) / Fold change /veh DDX43 (11728927_at) / RFU KRT8 (11758188_x_at) / Fold change /veh KRT8 (11758188_x_at) / RFU NKD1 (11759106_at) / Fold change /veh NKD1 (11759106_at) / RFU SRD5A1 (11742802_a_at) / Fold change /veh SRD5A1 (11742802_a_at) / RFU TPSAB1 /// TPSB2 (11721975_s_at) / Fold change /veh TPSAB1 /// TPSB2 (11721975_s_at) / RFU GSTM3 (11746129_a_at) / Fold change /veh GSTM3 (11746129_a_at) / RFU IL23R (11737362_x_at) / Fold change /veh IL23R (11737362_x_at) / RFU TMEM51 (11727254_a_at) / Fold change /veh TMEM51 (11727254_a_at) / RFU PIWIL2 (11732686_x_at) / Fold change /veh PIWIL2 (11732686_x_at) / RFU ORM1 (11744905_x_at) / Fold change /veh ORM1 (11744905_x_at) / RFU CCDC152 (11743942_at) / Fold change /veh CCDC152 (11743942_at) / RFU ECM1 (11717891_a_at) / Fold change /veh ECM1 (11717891_a_at) / RFU IL23R (11748794_a_at) / Fold change /veh IL23R (11748794_a_at) / RFU TNFAIP8L3 (11732012_x_at) / Fold change /veh TNFAIP8L3 (11732012_x_at) / RFU MBOAT4 (11741988_at) / Fold change /veh MBOAT4 (11741988_at) / RFU 11764193_at / Fold change /veh 11764193_at / RFU TMEM53 (11763286_at) / Fold change /veh TMEM53 (11763286_at) / RFU MAGEB2 (11727129_at) / Fold change /veh MAGEB2 (11727129_at) / RFU TMEM200A (11744735_a_at) / Fold change /veh TMEM200A (11744735_a_at) / RFU CCDC152 (11751479_a_at) / Fold change /veh CCDC152 (11751479_a_at) / RFU FAM211A (11726209_a_at) / Fold change /veh FAM211A (11726209_a_at) / RFU RGS16 (11746705_a_at) / Fold change /veh RGS16 (11746705_a_at) / RFU VCAN (11755009_s_at) / Fold change /veh VCAN (11755009_s_at) / RFU RHOB (11743442_s_at) / Fold change /veh RHOB (11743442_s_at) / RFU RGS16 (11720943_a_at) / Fold change /veh RGS16 (11720943_a_at) / RFU RGS16 (11720944_at) / Fold change /veh RGS16 (11720944_at) / RFU, VPS4B / Fold change vs veh, VPS4B / RFU, CREB1 / Fold change vs veh, CREB1 / RFU, DNAJC13 / Fold change vs veh, DNAJC13 / RFU, GNAQ / Fold change vs veh, GNAQ / RFU, CDK5R1 / Fold change vs veh, CDK5R1 / RFU, ZRANB3 / Fold change vs veh, ZRANB3 / RFU, CUL4A / Fold change vs veh, CUL4A / RFU, CCNY / Fold change vs veh, CCNY / RFU, UFL1 / Fold change vs veh, UFL1 / RFU, COG3 / Fold change vs veh, COG3 / RFU, DIAPH2 / Fold change vs veh, DIAPH2 / RFU, SKA2 / Fold change vs veh, SKA2 / RFU, AFF3 / Fold change vs veh, AFF3 / RFU, LMF1 / Fold change vs veh, LMF1 / RFU, IPO11 / Fold change vs veh, IPO11 / RFU, DFFB / Fold change vs veh, DFFB / RFU, FOXP1 / Fold change vs veh, FOXP1 / RFU, CARD8 / Fold change vs veh, CARD8 / RFU, STRN3 / Fold change vs veh, STRN3 / RFU, ADK / Fold change vs veh, ADK / RFU, RASSF2 / Fold change vs veh, RASSF2 / RFU, WIPF1 / Fold change vs veh, WIPF1 / RFU, LARP1B / Fold change vs veh, LARP1B / RFU, RASA1 / Fold change vs veh, RASA1 / RFU, RB1 / Fold change vs veh, RB1 / RFU, PPFIA1 / Fold change vs veh, PPFIA1 / RFU, MAT2A / Fold change vs veh, MAT2A / RFU, CCT5 / Fold change vs veh, CCT5 / RFU, WDR92 / Fold change vs veh, WDR92 / RFU, CUX1 / Fold change vs veh, CUX1 / RFU, TTC7A / Fold change vs veh, TTC7A / RFU, TMEM135 / Fold change vs veh, TMEM135 / RFU, DEPTOR / Fold change vs veh, DEPTOR / RFU, CPM / Fold change vs veh, CPM / RFU, DNAJB6 / Fold change vs veh, DNAJB6 / RFU, CACNA2D3 / Fold change vs veh, CACNA2D3 / RFU, DTX4 / Fold change vs veh, DTX4 / RFU, TFCP2 / Fold change vs veh, TFCP2 / RFU, GMCL1 /// GMCL1P1 / Fold change vs veh, GMCL1 /// GMCL1P1 / RFU, AEBP2 / Fold change vs veh, AEBP2 / RFU, SNHG1 /// SNORD22 /// SNORD25 /// SNORD26 /// SNORD27 /// SNORD28 /// SNORD29 /// SNORD31 / Fold change vs veh, SNHG1 /// SNORD22 /// SNORD25 /// SNORD26 /// SNORD27 /// SNORD28 /// SNORD29 /// SNORD31 / Fold change (Aza/veh), C12orf56 (ProbeSet 11735607_a_at) / Fold change (ACY-1035/veh), C12orf56 (ProbeSet 11735607_a_at) / Fold change (Aza/veh), FGFR1OP (ProbeSet 11751329_s_at) / Fold change (ACY-1035/veh), FGFR1OP (ProbeSet 11751329_s_at) / Fold change (Aza/veh), VPS36 (ProbeSet 11739960_a_at) / Fold change (ACY-1035/veh), VPS36 (ProbeSet 11739960_a_at) / RFU SYPL1 (11715823_x_at) / Fold change /veh SYPL1 (11715823_x_at) / RFU IGFBP7 (11715501_s_at) / Fold change /veh IGFBP7 (11715501_s_at) / RFU REEP3 (11722064_at) / Fold change /veh REEP3 (11722064_at) / RFU IGLL1 (11728026_x_at) / Fold change /veh IGLL1 (11728026_x_at): dose or concentration left out as unconfirmed
Conditions: ProbeSet 11764057_s_at; LIST B

Compound: Nc1ncn([C@@H]2O[C@H](CO)[C@@H](O)[C@H]2O)c(=O)n1 [azacitidine]
- RFU, C1orf63: 124.54 RFU
